For one data set, the system named is KB cells. Description: Inhibition of KB cell growth (XTT assay / total cell protein). In kind it is cell-based, human. As for the experimental part: Cell culture and treatment.
Evaluation of dendrimer cytotoxicity. Cell growth was determined by assay of the total protein in lysates of treated cells using a bicinchoninic acid reagent (PIERCE, and by XTT assay, using a kit from Roche.
Because the binding of the conjugate to KB cells reaches maximal uptake within 1 h (Quintana et al, 2002. Pharmaceutical Research 19: 1310-1316), the effect of the G5-FI-FA-MTX on cell growth was initially tested by pre-incubation of cells with the conjugate for 1 h, followed by incubation in a drug-free medium for 5 d. […] When the cells were pre-incubated with dendrimers for 4 h, there was a modest decrease of about 10% in cell growth as determined by XTT assay. The cytotoxicity measurements were therefore done by incubation with the dendrimer for a minimum of 24 h, a pre-incubation time period shown to induce significant cytotoxicity.
Time course and dose dependent inhibition of cell growth. Previous studies have shown that MTX-induced cytotoxicity is detectable in vitro only if the medium is completely deprived of FA (See, e.g., Sobrero & Bertino, Int. J. Cell Cloning 4, 51 (1986)). The effect of the trifunctional dendrimers on cell growth was tested in cells incubated in a FA-deficient medium. Cells were treated with 300 nM conjugates (equivalent of 1500 nM MTX) or 1500 nM free MTX for 1-4 days, and cell proliferation was determined by estimation of cellular protein content. […] KB cells which express high and low FAR were incubated with 30 nM of the dendrimers for 1 hr at 37° C., rinsed, and the fluorescence of cells was determined by flow cytometric analysis (See. e.g., FIG. 21, left panel). […]
As the G5-FITC-FA-MTX preparation contained equimolar concentrations of MTX and FA, the effect of similar concentrations of free MTX and free FA on the inhibition of cell growth was determined. […] The cells were rinsed to remove the drugs and incubated with fresh medium for an additional 6 d, and total cell protein was determined. […]
A general note: Formazan colour is commonly taken as a measure of viable cells.

A further data set concerns human KB xenografts. Description: Tumor growth and survival of SCID mice bearing s.c. human KB xenografts. Type of data set: in vivo. Here is the method: (§1) Delivery of targeted nanoparticle therapeutic.
Targeted drug delivery to tumor cells through the folate receptor. The efficacy of different doses of conjugates was tested on SCID CB-17 mice bearing s.c. human KB xenografts and was compared with equivalent and higher doses of free methotrexate. […] Six groups of SCID mice with five mice in each group were injected s.c. on one flank with 5×10^6 KB cells in 0.2 mL PBS suspension. The highest total dose of G5-FI-FA-MTX therapeutic used equals 55.0 mg/kg and is equivalent to a 5.0 mg/kg total cumulative dose of free methotrexate (FIG. 29). The therapeutic dose of the conjugate was compared with three cumulative doses of free methotrexate equivalent to 33.3, 21.7, and 5.0 mg/kg accumulated in 10 to 15 injections based on mouse survival. Saline and the conjugate without methotrexate (G5-FI-FA) were used as controls.
The equivalent dose of methotrexate delivered with both targeted conjugates to the surviving mice was higher than the dose of free methotrexate because all of the mice receiving free methotrexate died by day 66 of the trial (FIG. 30). The survival of mice from groups receiving G5-FI-FA-MTX or G5-FA-MTX conjugate indicate that tumor growth based on the end-point volume of 4 cm3 can be delayed by at least 30 days (FIG. 30). This value indicates the antitumor effectiveness of the conjugate because it mimics clinical end-points and requires observation of the mice throughout the progression of the disease. […] The tumor in this mouse was not palpable for the next 20 days up to the 60th day of the trial. […] Thus, in some embodiments, the present invention provides a composition comprising a dendrimer comprising a targeting agent, a therapeutic agent and an imaging agent. In preferred embodiments, the dendrimer is used for delivery, in a target specific manner, of a therapeutic agent (e.g., methotrexate) to tumor cells in vivo.
(A xenograft is tissue or cells of one species grown in another, often human tumour cells in immunodeficient mice.)

Data set [1] is described as follows: Toxicity of dendrimer conjugates and free methotrexate in SCID mice. Type of data set: in vivo.
Text: as §1
Toxicity of dendrimer conjugates. […] No morphologic abnormalities were observed on the histopathology examination.
The remaining experimental groups had very uniform body weight fluctuations nonindicative of toxicity when compared with control groups with saline or conjugate without methotrexate.

Consider `Nc1nc2ncc(CNc3ccc(C(=O)N[C@@H](CCC(=O)O)C(=O)O)cc3)nc2c(=O)[nH]1` [FA, Folic Acid], for which the “reversal of MTX-induced growth arrest by free FA” value in the data set with KB cells (150 nM FA with 150 nM MTX, 24 h, then 6 d, total cell protein) was “almost completely reversed the growth-arrest caused by 150 nM MTX”.
`CN(Cc1cnc2nc(N)nc(N)c2n1)c1ccc(C(=O)N[C@@H](CCC(=O)O)C(=O)O)cc1` [MTX, Methotrexate]: the “effect on tumor growth” value with human KB xenografts (cumulative dose equivalent to 5.0 mg/kg methotrexate (G5-FI-FA equimolar dendrimer)) was “no effect on tumor growth”; with human KB xenografts (free methotrexate cumulative 33.3 and 21.7 mg/kg), “affecting tumor growth”. The “survivors at termination of the trial” value with human KB xenografts (second 99-day trial) is reported as “no mice surviving”. Besides, in the data set on KB cells (1, 2 or 3 days), the “inhibition of cell growth (XTT assay)” value is recorded as “time-dependent cytotoxicity”. Further, the “growth inhibition of free MTX versus equimolar MTX in conjugate” value with KB cells (below 1 μM) is recorded as “higher than with the equimolar concentrations of MTX in the G5-FITC-FA-MTX”. Moreover, the liver histopathology result in data set [1] (mouse, in vivo) was “advanced liver lesions, collections of inflammatory cells, and periportal inflammation”. For the same compound, the “toxicity (body weight)” value in data set [1] (total dose equivalent to 5.0 mg/kg free methotrexate) was “neither the total accumulated dose of therapeutic conjugate equivalent to 5.0 mg/kg free methotrexate nor free methotrexate at the same dose were toxic”.

These data come from US20090053139A1, “Dendrimer based compositions and methods of using the same” (Regents of the University of Michigan, priority 2006, published 2009).
